In publication PMC9959716, “Borate Transporters and SLC4 Bicarbonate Transporters Share Key Functional Properties” (Membranes, 2023):

T1: ScBor1p (Saccharomyces cerevisiae, UniProt P53838)
T1 construct: gene BOR1; full length, C-terminal deca-histidine tag, pRS423-derived plasmid, GAL1 promoter, expressed in S. cerevisiae BTSY2 (bor1 deletion)
T1 sequence (P53838 1-576): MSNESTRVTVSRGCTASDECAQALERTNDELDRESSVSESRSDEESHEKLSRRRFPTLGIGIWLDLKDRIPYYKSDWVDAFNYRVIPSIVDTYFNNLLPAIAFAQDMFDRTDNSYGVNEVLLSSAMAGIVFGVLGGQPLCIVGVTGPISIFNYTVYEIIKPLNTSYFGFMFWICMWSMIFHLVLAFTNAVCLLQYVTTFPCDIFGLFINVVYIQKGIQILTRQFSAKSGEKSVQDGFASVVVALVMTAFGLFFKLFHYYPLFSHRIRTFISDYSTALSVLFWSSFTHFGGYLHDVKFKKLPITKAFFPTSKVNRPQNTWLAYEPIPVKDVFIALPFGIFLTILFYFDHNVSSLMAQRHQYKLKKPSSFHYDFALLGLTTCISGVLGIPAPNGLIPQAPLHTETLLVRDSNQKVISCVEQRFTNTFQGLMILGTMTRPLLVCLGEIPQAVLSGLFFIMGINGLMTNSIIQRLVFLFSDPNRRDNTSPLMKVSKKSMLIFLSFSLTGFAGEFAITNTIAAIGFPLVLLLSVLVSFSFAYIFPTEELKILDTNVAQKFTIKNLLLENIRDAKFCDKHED

B1: S. cerevisiae borate transporter Bor1p (natural protein, UniProt P53838 1-576, looked up)
chain: T1 sequence (P53838 1-576)
notes: Borate transporter Bor1p of S. cerevisiae, wild type; Membrane protein; Monomer-dimer equilibrium; dimer promoted by lipids; also called ScBor1p; source: reconstituted into PC or PG proteoliposomes

Experiments:
ScBor1p = molecular target: T1, ScBor1p; assay: curcumin spectrophotometric quantification of intracellular borate (efflux) in yeast lysates; assay type: cell-based; conditions: 1 mM boric acid for 90 min
[1] = molecular target: the molecule itself; assay: cross-linking; purified ScBor1p reconstituted into PC (16:0/18:1) proteoliposomes, 1:20 protein:lipid (w:w), detergent removed with Bio-beads; 0.15% glutaraldehyde, 5 min, room temperature; 20 mM Mes pH 6.5, 100 mM NaCl, 2% glycerol; control with 5 min pre-treatment with 2% SDS

| Molecule | curcumin spectrophotometric quantification of intracellular borate (efflux) in y (ScBor1p) | binding result [1] |
| --- | --- | --- |
| OB(O)O [borate] | Quantification of borate efflux activity in yeast cells expressing each indicated protein |  |
| B1 |  | binds |
